In patent publication US4379780A, “17 α-Dihydroequilin hapten and assay method” (American Home Products Corporation, priority 1980, dated 1983):

Test system: not listed separately
Assay: Oxidation of 17α-dihydroequilin to 17α-dihydroequilenin during formic acid hydrolysis (HPLC)
Format: physicochemical
Settings: 0.1% (w/v) ascorbic acid added before hydrolysis; 120 min
Description: Plasma (0.2 ml) and distilled water (0.7 ml) were added to a 16×125 mm tube and mixed. [6,7-^3 H]-Estrone-3-sulfate (0.1 ml, 2000 cpm, obtained from New England Nuclear Corp.), and [2,4-^3 H]-17α-dihydroequilin (0.1 ml, 2000 cpm) was then added to correct for recovery through the assay procedure, and the sample again mixed well and allowed to stand at room temperature for 30 min. Diethyl ether (2 ml) was added for extraction of the free compound. The extraction was repeated three times and the combined extracts washed with distilled water (1 ml) and the solvent removed by evaporation. The aqueous phase containing the conjugates was re-extracted with 2 ml of ethyl acetate-ethanol (4:1, v/v). The extraction was repeated two more times and the combined extracts were dried in a centrifuge tube (12 ml) under a stream of nitrogen. Absolute ethanol was added to those tubes which contained residual water and once again dried under nitrogen. The conjugate fraction was hydrolyzed with formic acid. […] The tube was tightly closed, vortexed, and sonified for 10 min before being placed in a 37° C. water bath for 2 hr. The hydrolyzed sample was taken to dryness, sodium phosphate buffer (1 ml) was added, and the solution was vortexed and allowed to stand at 20° C. for 10 min. The hydrolyzed free compound was extracted with diethyl ether (2 ml) three times and taken to dryness. […]

| Compound | 17α-dihydroequilin oxidized to 17α-dihydroequilenin during hydrolysis with formic acid |
| --- | --- |
| C[C@]12CC[C@H]3C(=CCc4cc(O)ccc43)[C@@H]1CC[C@H]2O [17α-Dihydroequilin, 1,3,5(10),7-estratetraene-3,17α-diol] | 2-3% |

Same assay, conditions: without ascorbic acid; 120 min

| Compound | 17α-dihydroequilin oxidized to 17α-dihydroequilenin during hydrolysis with formic acid |
| --- | --- |
| C[C@]12CC[C@H]3C(=CCc4cc(O)ccc43)[C@@H]1CC[C@H]2O [17α-Dihydroequilin, 1,3,5(10),7-estratetraene-3,17α-diol] | 13-16% |

Test system: anti-17α-dihydroequilin serum
Assay: Cross-reactivity of steroids with the anti-17α-dihydroequilin serum (radioimmunoassay)
Format: binding
Settings: selected rabbit anti-17α-dihydroequilin serum; [2,4-3H]-17α-dihydroequilin tracer
Description: For the assay procedure, a standard was prepared from a stock solution of unlabeled steroid in absolute ethanol (100 ng/ml). A working standard solution containing 1 ng/ml of unlabeled steroid was prepared in sodium phosphate buffer (0.1 M, pH 7, 0.9% NaCl). The labeled [2,4-^3 H]-17α-dihydroequilin solution was prepared in the assay buffer at a concentration of 100 pg/ml. The antiserum was prepared in BSA-assay buffer (1 g BSA/1000 ml sodium phosphate buffer) at a concentraton of one-fifth of the final working dilutions.
The standard curve was established by preparing duplicate 3 ml centrifuge tubes containing 0, 50, 100, 250, 500, 1000, and 2000 pg of the steroid in a total volume of 0.5 ml assay buffer. The sample tubes were prepared in duplicate with hydrolyzed plasma extract (0.1 ml) and assay buffer (0.4 ml) in a total volume of 0.5 ml. To all standard and sample tubes antibody (0.25 ml) and labeled steroid (0.5 ml) were added. These were mixed and allowed to incubate at 4° C. for 18 hr. After addition of 0.2 ml gamma globulin dextran-coated charcoal (4 g charcoal, 0.4 g dextran, 0.8 g human gamma globulin, 200 ml deionized water), each tube was again mixed and placed in a cold room (4° C.) for 20 min. After centrifugation at 2,500 rev./min for 6 min, 0.5 ml of each supernatant was aliquoted into a counting vial. Then 15 ml of a scintillation medium [(4 g of 2,5-diphenyloxazole (PPO), 50 mg of 1,4-di-2-(5-phenyloxazoyl)benzene (dimethyl-POPOP), 100 ml of the aqueous solubilizer Biosolv BBS-3 (Biosolv is a trademark of Beachman Instruments, Irvine, Calif., U.S.A.) and 1000 ml toluene] was added to each vial. The samples were counted to a relative standard error of less than 2% in a Packard model 3320 liquid scintillation counter, Packard Instrument Co., Downers Grove, Ill., U.S.A., see C. Matthijssen and J. W. Goldzieher, Analyt. Biochem., 10, 401 (1965).
The titer was determined from the ability of antibody to bind a constant amount (50 pg) of the labeled steroid.

| Compound | 17α-Dihydroequilin Antibody (Percent Cross-Reactivity) [%] |
| --- | --- |
| C[C@]12CCc3c(ccc4cc(O)ccc34)[C@@H]1CC[C@H]2O [17α-Dihydroequilenin] | < 0.10 |
| C[C@]12CC[C@H]3C(=CCc4cc(O)ccc43)[C@@H]1CCC2=O [Equilin] | 0.7 |
| C[C@]12CCC(=O)C=C1CC[C@@H]1[C@@H]2CC[C@]2(C)C(=O)CC[C@@H]12 [4-Androstene-3,17-dione] | < 0.10 |
| C[C@]12CC[C@H]3C(=CCc4cc(O)ccc43)[C@@H]1CC[C@@H]2O [17β-Dihydroequilin] | < 0.10 |
| C[C@]12CC[C@H](O)CC1=CC[C@@H]1[C@@H]2CC[C@]2(C)C(=O)CC[C@@H]12 [Dehydroepiandrosterone] | < 0.10 |
| C[C@]12CC[C@@H]3c4ccc(O)cc4CC[C@H]3[C@@H]1CC[C@@H]2O [Estradiol-17β] | < 0.10 |
| C[C@]12CC[C@H]3C(=CCc4cc(O)ccc43)[C@@H]1CC[C@H]2O [17α-Dihydroequilin, 1,3,5(10),7-estratetraene-3,17α-diol] | 100.0 |
| C[C@]12CC[C@H]3C(=CCc4cc(OS(=O)(=O)O)ccc43)[C@@H]1CC[C@H]2O [17α-Dihydroequilin 3-sulfate] | 9.04 |
| C[C@]12CC[C@@H]3c4ccc(O)cc4CC[C@H]3[C@@H]1CCC2=O [Estrone] | < 0.10 |
| C[C@]12CC[C@@H](O)C[C@@H]1CC[C@@H]1[C@@H]2CC[C@]2(C)C(=O)CC[C@@H]12 [Androsterone] | < 0.10 |
| CC(=O)[C@H]1CC[C@H]2[C@@H]3CCC4=CC(=O)CC[C@]4(C)[C@H]3CC[C@]12C [Progesterone] | < 0.10 |
| C[C@]12CC[C@H]3[C@@H](CCC4=CC(=O)CC[C@@]43C)[C@@H]1CC[C@@H]2O [Testosterone] | < 0.10 |
| C[C@]12CCC3=C(CCc4cc(O)ccc43)[C@@H]1CCC2=O [8-Dehydroestrone] | < 0.10 |
| C[C@]12CC[C@@H]3c4ccc(O)cc4C[C@@H](O)[C@]3(O)[C@@H]1CCC2=O [Equilin-7α,8α-glycol] | < 0.10 |
| C[C@]12CCC(=O)C=C1CC[C@@H]1[C@@H]2[C@@H](O)C[C@@]2(C)[C@H]1CC[C@]2(O)C(=O)CO [Cortisol] | < 0.10 |
| C[C@]12CCc3c(ccc4cc(O)ccc34)[C@@H]1CCC2=O [Equilenin] | 0.40 |
| C[C@]12CC[C@@H]3c4ccc(O)cc4CC[C@H]3[C@@H]1CC[C@H]2O [Estradiol-17α] | < 0.10 |
| C[C@]12CC[C@@H]3c4ccc(O)cc4C=C[C@H]3[C@@H]1CCC2=O [6-Dehydroestrone] | < 0.10 |
| C[C@]12CC[C@@H]3c4ccc(OS(=O)(=O)O)cc4CC[C@H]3[C@@H]1CC[C@H]2O [17α-Estradiol 3-sulfate] | < 0.10 |
| C[C@]12CCc3c(ccc4cc(O)ccc34)[C@@H]1CC[C@@H]2O [17β-Dihydroequilenin] | < 0.10 |
